Test results: ChEMBL document CHEMBL1130836, “Anti-AIDS agents. 31. Synthesis and anti-HIV activity of 4-substituted 3',4'-di-O-(-)-camphanoyl-(+)-cis-khellactone (DCK) thiolactone analogs” (Bioorg Med Chem Lett, 1998)
pEC50, pIC50: −log10 of the molar value.

Columns and labels:
H9 [1] = assay: Anti-HIV activity was evaluated as the concentration required to inhibit HIV-1 replication in H9 lymphocyte cells by 50%; type: functional, cell-based; conditions: Homo sapiens
[2] = Therapeutic index value was evaluated as the ratio of IC50/EC50; conditions: read-out: TI
H9 [3] = assay: Anti-HIV activity was evaluated as the concentration required to inhibit the growth of uninfected H9 lymphocyte cells by 50%; type: functional, cell-based; conditions: Homo sapiens

Q: With Cc1cc(=S)oc2c3c(ccc12)OC(C)(C)[C@H](OC(=O)C12CCC(C)(C(=O)O1)C2(C)C)[C@@H]3OC(=O)C12CCC(C)(C(=O)O1)C2(C)C (stereo partly drawn) as the compound, how does the pEC50 (H9 [1]) read?
A: 8.14

Q: And the selectivity ratio [2]?
A: > 21300

Q: What about the pIC50 (H9 [3]) of the same compound?
A: < 3.82

Q: With CC1(C)Oc2ccc3ccc(=S)oc3c2[C@@H](OC(=O)C23CCC(C)(C(=O)O2)C3(C)C)[C@H]1OC(=O)C12CCC(C)(C(=O)O1)C2(C)C (stereo partly drawn) as the compound, how does the pEC50 (H9 [1]) read?
A: 7.54

Q: And the selectivity ratio [2]?
A: > 5390

Q: And the pIC50 (H9 [3])?
A: < 3.81

Q: With CC1(C)Oc2ccc3ccc(=O)oc3c2[C@@H](OC(=O)C23CCC(C)(C(=O)O2)C3(C)C)[C@H]1OC(=O)C12CCC(C)(C(=O)O1)C2(C)C (stereo partly drawn) as the compound, how does the selectivity ratio [2] read?
A: 137000

Q: With CCCc1cc(=S)oc2c3c(ccc12)OC(C)(C)[C@H](OC(=O)C12CCC(C)(C(=O)O1)C2(C)C)[C@@H]3OC(=O)C12CCC(C)(C(=O)O1)C2(C)C (stereo partly drawn) as the compound, how does the pEC50 (H9 [1]) read?
A: 6.89

Q: And the selectivity ratio [2]?
A: > 1150

Q: What about the pIC50 (H9 [3]) of the same compound?
A: < 3.83

Q: With CC1(C)Oc2ccc3c(-c4ccccc4)cc(=S)oc3c2[C@@H](OC(=O)C23CCC(C)(C(=O)O2)C3(C)C)[C@H]1OC(=O)C12CCC(C)(C(=O)O1)C2(C)C (stereo partly drawn) as the compound, how does the pEC50 (H9 [1]) read?
A: 5.61

Q: And the selectivity ratio [2]?
A: > 56.6

Q: And the pIC50 (H9 [3])?
A: < 3.85
